Tests used:
P. aeruginosa PAO1 = assay: Synergy assay with Piperacillin Tazobactam; assay type: cell-based, Pseudomonas aeruginosa; settings: PPMO 32 to 0.5 μM; 2 μg/mL PMBN; 18 hours at 37° C.
Procedure: (§1) A synergy assay was performed with Piperacillin Tazobactam and AcpP PPMO #35 in P. aeruginosa PAO1. 1×10^6 cfu/mL of PAO1 was inoculated into Mueller Hinton II media in an 96-well plate in the presence of 2 μs/mL PMBN. Piperacillin Tazobactam (PT) was serial diluted by half dilutions in the lateral direction from 128 to 0.124 μg/mL. AcpP PPMO #35 was vertically diluted in the same manner from 32 to 0.5 μM. The 96-well plate was then incubated for 18 hours at 37° C.
as §1, with “μg/mL” for “μs/mL”

[1] = tested on: existing P. aeruginosa PAO1 biofilm; assay: Biofilm reduction in MBEC plate (crystal violet); assay type: cell-based, Pseudomonas aeruginosa; settings: at 10, 5, 2.5, and 1 μM; 2 μg/mL PMBN; 48 hour biofilm
Procedure: P. aeruginosa PAO1 (5×10^5 cfu/mL) was grown in an MBEC plate for 24 hours. At 24 hours, the pegs were moved to a new 96-well plate containing fresh MHII media and either scrambled, RpsJ, or AcpP PPMO at the indicated concentrations. All wells containing PPMOs (including Scrambled) contained 2 μg/mL of PMBN. The pegs were again moved to new plates with or without PPMOs at 32 and 40 hours. Pegs were processed for crystal violet or visualized with microscopy at 48 hours. […] FIGS. 7B-7D: Spinning Disk confocal microscopy images of 48 hour biofilm treated with (FIG. 7B) 10 μM Scr PPMO #42, (FIG. 7C) 2.5 μM AcpP PPMO #35, (FIG. 7D) 10 μM AcpP PPMO #35. Green channel is PAO1 GFP; Red channel is biofilm stained with 200 μg/mL of Concanavalin A, Alexafluor 647 conjugate.
Pseudomonas aeruginosa Biofilm Reduction in MBEC Plate Protocol
• 1. 10 mL of MH is inoculated with a single colony and incubated at 37° C. and ˜250 rpm for about 5 hours. • 2. The sample is centrifuged for 10 minutes at ˜4000 rpm at 4° C., the supernatant decanted and the pellet resuspended in 10 mL of 150 mM NaCl or PBS. This step is repeated to wash the pellet 3 times. • 3. […] The OD600 of the sample is taken and cfu/mL is calculated. […]
1. […] The final OD570 of the 10× dilution of solution should be approximately 0.500 absorbance. […]
2. OD reading: The OD570 for the 96-well plate from step 1e is determined. […]

PPMO #35: AcpP PMO CTCATACCTTG, 5′ (RXR)4XB CPP, 3′ H
MIC of Piperacillin Tazobactam in combination with PPMO (P. aeruginosa PAO1): decreasing MIC values as the PPMO concentration increased | reduction of existing biofilm (crystal violet) [1]: statistically significant reduction of biofilm

From patent US11293024B2, “Antisense antibacterial compounds and methods” (priority 2014, dated 2022)
